Assays:
Aqueous solubility = assay type: physicochemical
Description: (§1) Two specific toxicity assays have been performed to assess hepatoxicity and cardiotoxicity. Hepatotoxicity was evaluated in isolated hepatocytes from swiss mice and determined by the MTT colorimetric assay. Cardiotoxicity was evaluated using the commercially available Predictor hERG fluorescence polarization kit (Thermo Fisher Scientific). Several ADME assays have been carried out on the compounds generated throughout the project. The following experiments were undertaken: Stability in human microsomes, binding to human plasma protein, and CYP3A4 inhibition assay (Vivid CYP3A4 assay, Thermo Fisher Scientific). Physico-chemical properties were also assessed such as aqueous solubility and chemical stability.

Chemical stability = assay type: physicochemical
Description: as §1

CKD Mouse Model = assay: Renal profibrotic and inflammatory gene expression in the CKD mouse model; assay type: in vivo, mice; details: kidney, two months administration
Description: Chronic kidney disease (CKD) was induced by subtotal nephrectomy (Nx) in eight-weeks-old FVB male mice (25-26 g). All surgeries were performed under ketamine/xylazine anaesthesia. Briefly, the left kidney was exposed, and the upper and lower poles were tied with a poly-glycolic acid suture line. The peritoneum and skin were then sutured, and the animals were returned to their individual cages. After one week of recovery, the second kidney was removed. Removal of the second kidney represents TO. Sham mice were subjected to the same surgical procedures but neither renal poles nor the right kidney were removed. Mice were monitored for any sign of distress, and those observed to be experiencing severe, unrelievable pain were euthanized. Renal failure was assessed by the measure of plasma creatinine and urea with an automatic analyser (Konelab 20i; Thermo Fisher Scientific, Vernon Hills, Ill.) at weeks 4 and 10 post-Nx.
Frozen tissues (kidneys, heart) were homogenized in TRIzol (Life Technologies, 15596018) using FastPrep beads (MP-Bio, 6913-100). cDNAs were generated using the Superscript II reverse transcriptase kit (Invitrogen, 18064022), and qPCR was performed as previously described. Briefly, transcript levels were analysed in a CFX396 apparatus (Biorad). The reactions were performed in duplicate for each sample using the IQ SYBR Green supermix Kit (Biorad, 170-8882). […]

CC(=O)c1cccc(S(=O)(=O)NCc2ccccc2-n2cccn2)c1 [GPZ614741]
Aquous solubility (Aqueous solubility): 100%
solubility in aqueous buffers (solubility test) (Aqueous solubility): perfectly soluble
Chemical Stability (Chemical stability): 103%
stability to acidic pH / digestive content (Chemical stability): fully stable
profibrotic target genes (collagen1, fibronectin, alphaSMA) (CKD Mouse Model; FIG. 15A): blunted the increase
inflammatory markers (IL6, MCP1, TNFalpha) (CKD Mouse Model; FIG. 15B): no effects

From patent US20220054493A1, “INHIBITORS OF NGAL PROTEIN” (INSERM (INSTITUT NATIONAL DE LA SANTÉ ET DE LA RECHERCHE …, priority 2019, published 2022)
